For the test, the target named is BRD4(BD1) (Homo sapiens (Human), UniProt O60885). The test is described as follows: In vitro enzyme inhibition assay (BRD4 AlphaScreen). It counts as binding. The method in brief:
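AlphaScreen proximity readout, using streptavidin donor and Ni-chelate acceptor beads at 5 μg/mL final, monitors biotin-H4 tetraacetylated peptide interaction with purified His-tagged BRD4.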
In general terms: Bead proximity is the source of the signal in Alpha formats.

The mark [1] stands for this setting: in vitro enzyme inhibition assay.

By IC50 is commonly meant the concentration that inhibits the measured activity by half. The low end stands for greater potency in that assay, the high end for weaker potency in that assay.

`Cn1cc(-c2cc(S(C)(=O)=O)ccc2Oc2ccc(F)cc2F)c2ncncc2c1=O` [Example 233, 8-[2-(2,4-difluorophenoxy)-5-methylsulfonylphenyl]-6-methylpyrido[4,3-d]pyrimidin-5-one] had an IC50 under setting [1] of 500 to 5000 nM. Compound `CCS(=O)(=O)c1ccc(OCC2CC2)c(-c2cn(C)c(=O)c3c2CCC3)c1` [Example 505, 4-[2-(cyclopropylmethoxy)-5-ethylsulfonylphenyl]-2-methyl-6,7-dihydro-5H-cyclopenta[c]pyridin-1-one] displayed an IC50 under setting [1] below 500 nM. Still for that read-out and setting: with `CCCCc1cnc(NS(=O)(=O)CC)nc1-c1cc(Cl)c(=O)n(C)c1` [Example 360, N-[5-butyl-4-(5-chloro-1-methyl-6-oxopyridin-3-yl)pyrimidin-2-yl]ethanesulfonamide] the figure was below 500 nM; with `CCCCc1cnc(NS(C)(=O)=O)nc1-c1cc(C)c(=O)n(C)c1` [Example 363, N-[5-butyl-4-(1,5-dimethyl-6-oxopyridin-3-yl)pyrimidin-2-yl]methanesulfonamide], below 500 nM. As for `CCS(=O)(=O)Cc1ccc(OCC(F)(F)F)c(-c2cc(C)c(=O)n(C)c2)c1` [Example 411, 5-[5-(ethylsulfonylmethyl)-2-(2,2,2-trifluoroethoxy)phenyl]-1,3-dimethylpyridin-2-one], the IC50 under setting [1] was below 500 nM.

The compound `Cc1cc(-c2cc(S(C)(=O)=O)ccc2O[C@H]2CC[C@@H](N)CC2)cn(C)c1=O` [Example 403, 5-[2-(cis-4-aminocyclohexyl)oxy-5-methylsulfonylphenyl]-1,3-dimethylpyridin-2-one] showed an IC50 under setting [1] below 500 nM. Under setting [1], `CCCCn1cc(-c2nc(NS(=O)(=O)CC)ncc2Oc2ccc(F)cc2F)cc(C)c1=O` [Example 297, N-[4-(1-butyl-5-methyl-6-oxopyridin-3-yl)-5-(2,4-difluorophenoxy)pyrimidin-2-yl]ethanesulfonamide] came in with an IC50 below 500 nM.

As to `CCCCc1ccc(S(C)(=O)=O)cc1-c1ccc(=O)n(C)c1` [Example 317, 5-(2-butyl-5-methylsulfonylphenyl)-1-methylpyridin-2-one], the half-maximal inhibitory concentration (IC50) under setting [1] is below 500 nM. Still for that read-out and setting: with `CCC1CCc2cc(NS(=O)(=O)CC)cc(-c3cc(C)c(=O)n(C)c3)c2O1` (stereo not shown) [Example 492, N-[8-(1,5-dimethyl-6-oxopyridin-3-yl)-2-ethyl-3,4-dihydro-2H-chromen-6-yl] ethanesulfonamide] the figure was below 500 nM; with `CCCCc1cnc(S(C)(=O)=O)nc1-c1cn(C)c(=O)c2ccccc12` [Example 304, 4-(5-butyl-2-methylsulfonyl-pyrimidin-4-yl)-2-methylisoquinolin-1-one], below 500 nM. As for `CCS(=O)(=O)Nc1ccc(Oc2ccc(F)cc2F)c(-c2cn(C)c(=O)c3c2CCC3)c1` [Example 507, N-[4-(2,4-difluorophenoxy)-3-(2-methyl-1-oxo-6,7-dihydro-5H-cyclopenta[c]pyridin-4-yl)phenyl]ethanesulfonamide], the 50% inhibitory concentration (IC50) under setting [1] was below 500 nM. Still for that read-out and setting: with `CCCCc1cnc(NS(=O)(=O)CC)nc1-c1cc(OC)c(=O)n(C)c1` [Example 362, N-[5-butyl-4-(5-methoxy-1-methyl-6-oxopyridin-3-yl)pyrimidin-2-yl]ethanesulfonamide] the figure was below 500 nM; with `Cc1cc(-c2cc(OCC(F)(F)F)cc(S(C)(=O)=O)c2)cn(C)c1=O` [Example 328, 1,3-dimethyl-5-[3-methylsulfonyl-5-(2,2,2-trifluoroethoxy)phenyl]pyridin-2-one], below 500 nM.

For `CCCCc1cnc(S(C)(=O)=O)nc1-c1cc(C(C)C)c(=O)n(C)c1` [Example 513, 5-(5-butyl-2-methylsulfonylpyrimidin-4-yl)-1-methyl-3-propan-2-ylpyridin-2-one], the half-maximal inhibitory concentration (IC50) under setting [1] was below 500 nM. Consider `CCc1ccc(S(C)(=O)=O)cc1-c1cn(C)c(=O)c2ccccc12` [Example 316, 4-(2-ethyl-5-methylsulfonylphenyl)-2-methylisoquinolin-1-one], for which, under setting [1], the half-inhibitory concentration (IC50) was below 500 nM. For `COc1ccc(COc2cc(-c3cn(C)c(=O)c4ccccc34)cc(S(C)(=O)=O)c2)cc1` [Example 343, 4-[3-[(4-methoxyphenyl)methoxy]-5-methylsulfonylphenyl]-2-methylisoquinolin-1-one], the concentration for half-maximal inhibition (IC50) under setting [1] was in the range of 500 to 5000 nM.

Compound `Cn1cc(-c2cccc(S(C)(=O)=O)c2)n2cncc2c1=O` [Example 131, 7-methyl-5-(3-methylsulfonylphenyl)imidazo[1,5-a]pyrazin-8-one] gave a half-inhibitory concentration (IC50) (class symbols A/B/C) above 5000 nM. As for `CCC#CCOc1ccc(S(=O)(=O)CC)cc1-c1cc(OC)c(=O)n(C)c1` [Example 390, 5-(5-ethylsulfonyl-2-pent-2-ynoxyphenyl)-3-methoxy-1-methylpyridin-2-one], the IC50 under setting [1] is below 500 nM. With `CC(C)S(=O)(=O)c1ccc(OCC2CC2)c(-c2cn(C)c(=O)c3ccccc23)c1` [Example 364, 4-[2-(cyclopropylmethoxy)-5-propan-2-ylsulfonylphenyl]-2-methylisoquinolin-1-one], the 50% inhibitory concentration (IC50) under setting [1] is below 500 nM. Under setting [1], `COc1ccc(COc2cc(-c3cc(C)c(=O)n(C)c3)cc(S(C)(=O)=O)c2)cc1` [Example 323, 5-[3-[(4-methoxyphenyl)methoxy]-5-methylsulfonylphenyl]-1,3-dimethylpyridin-2-one] returned an IC50 below 500 nM. With `CCS(=O)(=O)Nc1nc(Oc2ccc(F)cc2F)cc(-c2cc(C)c(=O)n(C)c2)n1` [Example 346, N-[4-(2,4-difluorophenoxy)-6-(1,5-dimethyl-6-oxopyridin-3-yl)pyrimidin-2-yl]ethanesulfonamide], the IC50 under setting [1] is 500 to 5000 nM. The same measure, in the same setting: with `CCCc1cnc(NS(=O)(=O)CC)nc1-c1cc(Cl)c(=O)n(C)c1` [Example 359, N-[4-(5-chloro-1-methyl-6-oxopyridin-3-yl)-5-propylpyrimidin-2-yl]ethanesulfonamide] the figure was below 500 nM; with `CCOc1ccc(S(=O)(=O)CC)cc1-c1cn(C)c(=O)cc1C` [Example 458, 5-(2-ethoxy-5-ethylsulfonylphenyl)-1,4-dimethylpyridin-2-one], below 500 nM; with `Cc1cc(-c2cc(S(=O)(=O)C(C)C)ccc2OCC2CC2)cn(C)c1=O` [Example 394, 5-[2-(cyclopropylmethoxy)-5-propan-2-ylsulfonylphenyl]-1,3-dimethylpyridin-2-one], below 500 nM.

As for `CCS(=O)(=O)c1ccc(NCC2CC2)c(-c2cc(NC)c(=O)n(C)c2)c1` [Example 408, 5-[2-(cyclopropylmethylamino)-5-ethylsulfonylphenyl]-1-methyl-3-(methylamino)pyridin-2-one], under setting [1], the concentration for half-maximal inhibition (IC50) was below 500 nM. On the same count and under the same terms, the value for `Cn1cc(-c2cc(OCC3CC3)cc(S(C)(=O)=O)c2)c2ccoc2c1=O` [Example 350, 4-[3-(cyclopropylmethoxy)-5-methylsulfonylphenyl]-6-methylfuro[2,3-c]pyridine-7-one] was below 500 nM. On to `CCS(=O)(=O)c1ccc(OCC2CC2)c(-c2cc(NC)c(=O)n(C)c2)c1` [Example 409, 5-[2-(cyclopropylmethoxy)-5-ethylsulfonylphenyl]-1-methyl-3-(methylamino)pyridin-2-one], for which the IC50 under setting [1] was below 500 nM. `Cc1cc(-c2cc(OCc3cccc(C#N)c3)cc(S(C)(=O)=O)c2)cn(C)c1=O` [Example 339, 3-[[3-(1,5-dimethyl-6-oxopyridin-3-yl)-5-methylsulfonylphenoxy]methyl]benzonitrile]: the IC50 under setting [1] is below 500 nM.

Values taken from patent US10023592B2, “Bromodomain inhibitors” (Celgene Quanticel Research, Inc., priority 2013, dated 2018).
